In US20130252886A1, “METHODS OF DELAYING AND TREATING DIABETES” (priority 2010, published 2013):
Entries after “also recorded” stand apart in the source; their conditions may differ.

Experiments:
insulin-dependent dogs = test: Clinical trial of oral GABA in naturally-occurring insulin-dependent dogs: blood glucose, fructosamine; assay type: in vivo
Description: These companion dogs were housed in homes, mimicking the lifestyle of diabetic humans. Based on published estimates, approximately 50% of these animals had insulitis, while others have had pancreatitis.
The GABA was diluted in water and the owner administers it orally (PO QD) as a bolus just before feeding. […] Once randomized on day 120, all investigators were blinded as to treatment.
As previously described in Example 5, supra, the 8 month clinical canine trial in collaboration with Purdue University was completed. Naturally-occurring diabetic dogs were housed in homes and were insulin dependent when they began the study. FIGS. 18 and 19 show the mean 10 hour fasting blood glucose (mg/dl) and mean C-peptide (ng/ml/kg) in these insulin-dependent dogs, respectively.
FIG. 18 is a graph of the mean blood glucose in the seven dogs measured during a ten hour window. On a measurement day, the dogs were fed and given insulin. Blood glucose was then monitored at ˜8:00 AM and for every two hours until ˜6:00 PM. The mean of these values was taken and plotted in FIG. 18.
On day 0, the mean 10 hr glucose was 310 mg/dl. From day 0 to day 60, the dogs were treated with insulin only. […] The mean blood glucose over the 10 hour measurement period dropped to 209 mg/dl by the last visit, a 33% overall improvement without a significant change in the average insulin dosage.

[1] = Average body weight / lean body mass of NOD mice; assay type: in vivo; conditions: 30 mg/kg GABA and/or 0.4 U insulin groups, FIGS. 3 and 4, 30 mg/kg
Description: FIGS. 3 and 4 show the average weight for the NOD mice in each group during the course of the experiment. The x-axis (age of mouse in weeks) corresponds to both the delayed onset and treatment regimens, depending on when the diagnosis of diabetes was made.

## NCCCC(=O)O [GABA, γ-aminobutyric acid]
insulin-dependent dogs; 30 mg/kg GABA PO QD
  average reduction in blood glucose levels from day 60 to day 120: 32%
  reduction in average blood glucose levels at day 120 compared to the pre-treatment average (day −10 through day 60): 40%
insulin-dependent dogs; day 0 to last visit, without significant change in average insulin dosage
  overall improvement of mean 10 hour blood glucose: 33%
insulin-dependent dogs; seven dogs, last visit, GABA escalated 30, 60, 90 mg/kg, day 0 value 310 mg/dl
  mean blood glucose over the 10 hour measurement period: 209 mg/dL
insulin-dependent dogs; six dogs, 30 mg/kg GABA PO QD from day 60, with insulin, 30 mg/kg
  fasting blood glucose control: downward decrease in fasting blood glucose; also recorded: substantially improved
insulin-dependent dogs; six dogs, treatment days 60-120 with 30 mg/kg GABA vs pretreatment days 0-59 (p=0.007)
  mean fructosamine level: decline of the mean fructosamine level
[1]
  average weight / lean body mass: maintained the lowest weights; also recorded: maintains lean body mass
